Laboratory results taken from ChEMBL document CHEMBL5696442, “Discovery of type II inhibitors of TGFβ-activated kinase 1 (TAK1) and mitogen-activated protein kinase kinase kinase kinase 2 (MAP4K2)” (J Med Chem, 2015).
Calls of active or inactive are those of the source. The calls are words filed in the database; no cut-off is given here.

Experiments:
[1] = Inhibition of KHS1 Lys2 labeling site harbouring DIKGANILLTDHGDVKLADFGVAAK in human Huh-7 cells at 1 uM by KiNativ Profiling analysis relative to control; details: condition cancer
[2] = molecular target: Serine/threonine-protein kinase ATR (Homo sapiens) (UniProt Q13535); test: Inhibition of ATR in human Huh-7 cells at 1 uM by KiNativ Profiling analysis relative to control; type: cell-based
[3] = molecular target: Serine/threonine-protein kinase Nek7 (Homo sapiens) (UniProt Q8TDX7); test: Inhibition of NEK7 Lys2 labeling site harbouring VMHRDIKPANVFITATGVVK in human Huh-7 cells at 1 uM by KiNativ Profiling analysis relative to control; type: cell-based
Sequence of Serine/threonine-protein kinase Nek7 (Homo sapiens) (Q8TDX7 whole entry, looked up): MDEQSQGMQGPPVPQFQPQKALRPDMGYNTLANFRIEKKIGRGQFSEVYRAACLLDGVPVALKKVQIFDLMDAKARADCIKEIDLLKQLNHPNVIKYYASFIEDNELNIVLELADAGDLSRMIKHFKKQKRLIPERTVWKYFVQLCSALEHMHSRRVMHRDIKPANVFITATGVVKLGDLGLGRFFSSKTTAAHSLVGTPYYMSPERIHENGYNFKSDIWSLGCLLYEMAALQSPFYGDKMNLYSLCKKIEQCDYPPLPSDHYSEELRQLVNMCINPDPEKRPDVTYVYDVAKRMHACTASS

[4] = molecular target: T1, Serine/threonine-protein kinase Chk1 (Homo sapiens) (UniProt O14757); test: Inhibition of CHK1 in human Huh-7 cell lysate at 1 uM by KiNativ Profiling analysis relative to control; type: subcellular
T1 sequence (whole entry): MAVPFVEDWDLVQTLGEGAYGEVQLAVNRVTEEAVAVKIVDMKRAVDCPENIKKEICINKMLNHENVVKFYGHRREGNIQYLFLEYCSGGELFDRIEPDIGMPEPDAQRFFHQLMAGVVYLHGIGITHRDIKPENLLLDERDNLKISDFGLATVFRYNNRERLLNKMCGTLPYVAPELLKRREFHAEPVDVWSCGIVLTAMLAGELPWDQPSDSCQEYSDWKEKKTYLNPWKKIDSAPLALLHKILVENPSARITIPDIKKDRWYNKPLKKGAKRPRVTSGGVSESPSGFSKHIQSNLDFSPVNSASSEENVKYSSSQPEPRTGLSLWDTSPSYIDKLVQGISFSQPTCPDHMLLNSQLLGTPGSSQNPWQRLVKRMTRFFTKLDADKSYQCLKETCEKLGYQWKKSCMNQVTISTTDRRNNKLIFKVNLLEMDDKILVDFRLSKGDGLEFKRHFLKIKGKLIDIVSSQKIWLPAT

[5] = molecular target: T2, Dual specificity mitogen-activated protein kinase kinase 3 (Homo sapiens) (UniProt P46734); test: Inhibition of MEK3 (unknown origin) at 1 uM by Ambit Kinomescan binding assay relative to control; values are per cent of control
T2 sequence (whole entry): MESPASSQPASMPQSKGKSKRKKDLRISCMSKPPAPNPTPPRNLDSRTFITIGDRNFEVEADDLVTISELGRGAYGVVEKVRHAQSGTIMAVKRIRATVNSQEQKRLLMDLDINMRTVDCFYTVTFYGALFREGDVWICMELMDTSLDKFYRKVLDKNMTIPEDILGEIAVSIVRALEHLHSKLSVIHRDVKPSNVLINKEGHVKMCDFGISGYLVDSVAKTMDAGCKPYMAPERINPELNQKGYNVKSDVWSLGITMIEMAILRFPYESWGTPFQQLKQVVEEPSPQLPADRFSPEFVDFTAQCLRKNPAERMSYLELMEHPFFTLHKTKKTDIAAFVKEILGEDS

[6] = molecular target: T3, Serine/threonine-protein kinase Nek1 (Homo sapiens) (UniProt Q96PY6); test: Inhibition of NEK1 (unknown origin) at 1 uM by Ambit Kinomescan binding assay relative to control; values are per cent of control
T3 sequence (whole entry): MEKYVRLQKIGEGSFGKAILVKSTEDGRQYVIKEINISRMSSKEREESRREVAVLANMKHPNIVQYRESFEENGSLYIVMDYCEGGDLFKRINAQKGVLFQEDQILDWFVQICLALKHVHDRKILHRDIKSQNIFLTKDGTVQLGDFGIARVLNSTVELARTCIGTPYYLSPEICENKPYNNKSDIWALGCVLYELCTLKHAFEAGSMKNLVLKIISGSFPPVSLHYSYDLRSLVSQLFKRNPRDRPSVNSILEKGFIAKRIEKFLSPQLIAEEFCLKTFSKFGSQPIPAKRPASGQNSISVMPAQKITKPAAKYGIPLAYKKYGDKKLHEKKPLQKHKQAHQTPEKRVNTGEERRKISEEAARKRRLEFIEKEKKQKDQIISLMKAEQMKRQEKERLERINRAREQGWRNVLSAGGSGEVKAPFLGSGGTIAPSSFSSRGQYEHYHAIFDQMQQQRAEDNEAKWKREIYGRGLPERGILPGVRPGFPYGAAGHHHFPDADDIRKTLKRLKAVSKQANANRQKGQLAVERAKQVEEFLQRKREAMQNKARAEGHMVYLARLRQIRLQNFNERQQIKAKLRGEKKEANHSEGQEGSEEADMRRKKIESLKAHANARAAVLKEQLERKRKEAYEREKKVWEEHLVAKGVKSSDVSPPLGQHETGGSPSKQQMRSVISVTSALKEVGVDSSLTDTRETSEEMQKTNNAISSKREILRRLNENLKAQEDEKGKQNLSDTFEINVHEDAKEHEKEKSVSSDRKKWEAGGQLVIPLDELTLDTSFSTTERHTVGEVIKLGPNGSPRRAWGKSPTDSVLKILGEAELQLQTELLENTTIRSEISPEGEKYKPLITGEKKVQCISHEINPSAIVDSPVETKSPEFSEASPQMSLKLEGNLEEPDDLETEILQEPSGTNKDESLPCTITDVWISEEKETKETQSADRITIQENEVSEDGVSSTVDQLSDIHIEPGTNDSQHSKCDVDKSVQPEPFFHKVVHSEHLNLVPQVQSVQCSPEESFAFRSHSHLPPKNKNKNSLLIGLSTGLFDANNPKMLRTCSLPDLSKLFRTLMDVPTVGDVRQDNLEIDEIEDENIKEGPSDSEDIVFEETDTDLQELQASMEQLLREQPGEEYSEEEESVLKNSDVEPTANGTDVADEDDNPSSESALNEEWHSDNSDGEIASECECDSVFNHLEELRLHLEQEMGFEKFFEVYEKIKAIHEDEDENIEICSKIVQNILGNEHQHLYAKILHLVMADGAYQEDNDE

[7] = molecular target: Tyrosine-protein kinase Yes (Homo sapiens) (UniProt P07947); test: Inhibition of YES (unknown origin) at 1 uM by Ambit Kinomescan binding assay relative to control; values are per cent of control
Sequence of Tyrosine-protein kinase Yes (Homo sapiens) (P07947 2-543 limits assumed): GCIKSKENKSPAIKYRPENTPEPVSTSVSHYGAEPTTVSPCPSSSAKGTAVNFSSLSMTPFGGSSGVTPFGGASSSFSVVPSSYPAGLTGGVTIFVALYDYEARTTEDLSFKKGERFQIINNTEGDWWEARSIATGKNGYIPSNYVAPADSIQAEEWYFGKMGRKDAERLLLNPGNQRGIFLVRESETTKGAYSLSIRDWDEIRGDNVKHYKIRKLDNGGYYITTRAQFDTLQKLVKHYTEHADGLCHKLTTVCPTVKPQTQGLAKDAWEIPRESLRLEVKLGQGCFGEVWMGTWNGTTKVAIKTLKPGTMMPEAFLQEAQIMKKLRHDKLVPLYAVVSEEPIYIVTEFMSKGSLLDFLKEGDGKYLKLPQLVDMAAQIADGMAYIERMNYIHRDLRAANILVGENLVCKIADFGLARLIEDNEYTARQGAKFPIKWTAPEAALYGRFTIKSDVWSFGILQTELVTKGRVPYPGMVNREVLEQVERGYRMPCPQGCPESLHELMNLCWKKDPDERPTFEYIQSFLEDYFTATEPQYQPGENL

[8] = molecular target: Insulin receptor-related protein (Homo sapiens) (UniProt P14616); test: Inhibition of INSRR (unknown origin) at 1 uM by Ambit Kinomescan binding assay relative to control; values are per cent of control
Sequence of Insulin receptor-related protein (Homo sapiens) (P14616 whole entry, looked up): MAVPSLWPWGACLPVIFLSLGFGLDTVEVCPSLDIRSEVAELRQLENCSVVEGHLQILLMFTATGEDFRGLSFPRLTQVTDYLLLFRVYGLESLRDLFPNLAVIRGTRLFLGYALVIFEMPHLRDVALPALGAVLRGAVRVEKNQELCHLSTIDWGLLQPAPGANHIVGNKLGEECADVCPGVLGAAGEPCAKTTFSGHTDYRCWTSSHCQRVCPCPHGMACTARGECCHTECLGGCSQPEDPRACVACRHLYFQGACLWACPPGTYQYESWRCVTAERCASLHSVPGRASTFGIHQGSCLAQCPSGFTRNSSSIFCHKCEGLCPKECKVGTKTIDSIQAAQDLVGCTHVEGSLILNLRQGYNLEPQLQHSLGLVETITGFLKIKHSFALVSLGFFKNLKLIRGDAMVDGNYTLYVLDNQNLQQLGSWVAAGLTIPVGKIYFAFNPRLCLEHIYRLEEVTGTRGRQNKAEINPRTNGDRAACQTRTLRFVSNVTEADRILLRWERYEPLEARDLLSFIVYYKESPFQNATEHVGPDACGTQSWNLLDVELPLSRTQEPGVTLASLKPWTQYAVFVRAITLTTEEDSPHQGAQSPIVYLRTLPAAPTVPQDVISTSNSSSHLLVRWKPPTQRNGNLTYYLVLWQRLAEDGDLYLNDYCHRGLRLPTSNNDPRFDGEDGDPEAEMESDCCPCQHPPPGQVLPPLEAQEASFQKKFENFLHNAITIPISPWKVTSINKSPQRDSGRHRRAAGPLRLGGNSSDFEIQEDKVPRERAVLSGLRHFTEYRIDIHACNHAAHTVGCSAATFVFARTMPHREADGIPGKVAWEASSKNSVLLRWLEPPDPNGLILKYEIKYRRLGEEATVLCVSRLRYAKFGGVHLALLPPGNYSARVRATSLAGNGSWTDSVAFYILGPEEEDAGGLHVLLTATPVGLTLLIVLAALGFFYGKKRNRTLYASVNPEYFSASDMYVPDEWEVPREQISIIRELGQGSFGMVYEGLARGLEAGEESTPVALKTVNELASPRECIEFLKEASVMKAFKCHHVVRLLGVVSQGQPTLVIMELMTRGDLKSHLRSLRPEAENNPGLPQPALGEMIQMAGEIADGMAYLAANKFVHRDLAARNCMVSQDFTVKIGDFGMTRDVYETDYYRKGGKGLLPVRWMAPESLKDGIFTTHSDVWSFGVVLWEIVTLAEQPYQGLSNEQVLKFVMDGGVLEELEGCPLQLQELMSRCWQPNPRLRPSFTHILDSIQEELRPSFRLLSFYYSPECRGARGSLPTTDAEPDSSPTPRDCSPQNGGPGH

[9] = molecular target: Serine/threonine-protein kinase PLK3 (Homo sapiens) (UniProt Q9H4B4); test: Inhibition of PLK3 (unknown origin) at 10 uM by Ambit Kinomescan binding assay
Sequence of Serine/threonine-protein kinase PLK3 (Homo sapiens) (Q9H4B4 whole entry, looked up): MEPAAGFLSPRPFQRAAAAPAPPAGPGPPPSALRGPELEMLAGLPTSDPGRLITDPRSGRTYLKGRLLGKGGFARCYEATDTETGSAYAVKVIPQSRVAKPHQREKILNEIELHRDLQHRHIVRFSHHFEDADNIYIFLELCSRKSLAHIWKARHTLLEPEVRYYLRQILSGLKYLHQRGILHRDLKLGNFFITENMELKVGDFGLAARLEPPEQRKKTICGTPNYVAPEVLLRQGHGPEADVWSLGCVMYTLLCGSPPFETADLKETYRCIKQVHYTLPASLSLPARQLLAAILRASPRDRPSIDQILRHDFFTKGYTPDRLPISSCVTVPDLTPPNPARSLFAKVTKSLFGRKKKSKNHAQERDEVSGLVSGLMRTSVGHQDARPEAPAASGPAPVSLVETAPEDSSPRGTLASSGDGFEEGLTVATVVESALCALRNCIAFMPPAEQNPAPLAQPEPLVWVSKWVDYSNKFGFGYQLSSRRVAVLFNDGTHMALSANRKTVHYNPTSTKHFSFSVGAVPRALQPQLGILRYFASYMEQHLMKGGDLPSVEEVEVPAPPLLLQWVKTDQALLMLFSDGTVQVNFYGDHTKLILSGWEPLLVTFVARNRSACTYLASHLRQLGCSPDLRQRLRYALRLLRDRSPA

[10] = molecular target: Myosin light chain kinase (Homo sapiens) (UniProt Q32MK0); test: Inhibition of MLCK (unknown origin) at 10 uM by Ambit Kinomescan binding assay
Sequence of Myosin light chain kinase (Homo sapiens) (Q32MK0 whole entry, the tested form may be a part): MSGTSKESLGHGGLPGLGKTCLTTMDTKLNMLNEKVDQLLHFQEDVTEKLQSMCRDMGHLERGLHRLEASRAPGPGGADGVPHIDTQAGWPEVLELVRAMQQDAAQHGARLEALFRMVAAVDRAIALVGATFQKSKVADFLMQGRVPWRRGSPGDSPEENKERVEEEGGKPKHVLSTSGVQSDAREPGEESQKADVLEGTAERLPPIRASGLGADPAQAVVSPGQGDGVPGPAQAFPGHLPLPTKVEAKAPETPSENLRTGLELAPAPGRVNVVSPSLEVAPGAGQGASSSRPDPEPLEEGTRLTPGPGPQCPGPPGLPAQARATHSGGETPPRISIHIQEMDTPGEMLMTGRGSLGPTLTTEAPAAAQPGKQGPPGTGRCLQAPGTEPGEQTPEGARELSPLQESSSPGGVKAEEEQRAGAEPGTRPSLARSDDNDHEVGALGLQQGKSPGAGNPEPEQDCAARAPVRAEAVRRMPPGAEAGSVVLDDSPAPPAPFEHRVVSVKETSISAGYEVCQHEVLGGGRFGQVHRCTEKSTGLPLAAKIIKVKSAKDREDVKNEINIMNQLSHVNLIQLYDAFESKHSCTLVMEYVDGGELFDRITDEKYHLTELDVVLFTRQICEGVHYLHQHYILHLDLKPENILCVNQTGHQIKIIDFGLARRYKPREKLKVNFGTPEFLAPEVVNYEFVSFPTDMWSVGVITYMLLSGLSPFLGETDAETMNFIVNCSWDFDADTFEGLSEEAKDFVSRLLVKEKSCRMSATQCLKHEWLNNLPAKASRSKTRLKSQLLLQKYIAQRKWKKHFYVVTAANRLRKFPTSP

[11] = molecular target: Non-receptor tyrosine-protein kinase TYK2 (Homo sapiens) (UniProt P29597); test: Inhibition of TYK2 JH2 pseudokinase domain (unknown origin) at 10 uM by Ambit Kinomescan binding assay
Sequence of Non-receptor tyrosine-protein kinase TYK2 (Homo sapiens) (P29597 whole entry, the tested form may be a part): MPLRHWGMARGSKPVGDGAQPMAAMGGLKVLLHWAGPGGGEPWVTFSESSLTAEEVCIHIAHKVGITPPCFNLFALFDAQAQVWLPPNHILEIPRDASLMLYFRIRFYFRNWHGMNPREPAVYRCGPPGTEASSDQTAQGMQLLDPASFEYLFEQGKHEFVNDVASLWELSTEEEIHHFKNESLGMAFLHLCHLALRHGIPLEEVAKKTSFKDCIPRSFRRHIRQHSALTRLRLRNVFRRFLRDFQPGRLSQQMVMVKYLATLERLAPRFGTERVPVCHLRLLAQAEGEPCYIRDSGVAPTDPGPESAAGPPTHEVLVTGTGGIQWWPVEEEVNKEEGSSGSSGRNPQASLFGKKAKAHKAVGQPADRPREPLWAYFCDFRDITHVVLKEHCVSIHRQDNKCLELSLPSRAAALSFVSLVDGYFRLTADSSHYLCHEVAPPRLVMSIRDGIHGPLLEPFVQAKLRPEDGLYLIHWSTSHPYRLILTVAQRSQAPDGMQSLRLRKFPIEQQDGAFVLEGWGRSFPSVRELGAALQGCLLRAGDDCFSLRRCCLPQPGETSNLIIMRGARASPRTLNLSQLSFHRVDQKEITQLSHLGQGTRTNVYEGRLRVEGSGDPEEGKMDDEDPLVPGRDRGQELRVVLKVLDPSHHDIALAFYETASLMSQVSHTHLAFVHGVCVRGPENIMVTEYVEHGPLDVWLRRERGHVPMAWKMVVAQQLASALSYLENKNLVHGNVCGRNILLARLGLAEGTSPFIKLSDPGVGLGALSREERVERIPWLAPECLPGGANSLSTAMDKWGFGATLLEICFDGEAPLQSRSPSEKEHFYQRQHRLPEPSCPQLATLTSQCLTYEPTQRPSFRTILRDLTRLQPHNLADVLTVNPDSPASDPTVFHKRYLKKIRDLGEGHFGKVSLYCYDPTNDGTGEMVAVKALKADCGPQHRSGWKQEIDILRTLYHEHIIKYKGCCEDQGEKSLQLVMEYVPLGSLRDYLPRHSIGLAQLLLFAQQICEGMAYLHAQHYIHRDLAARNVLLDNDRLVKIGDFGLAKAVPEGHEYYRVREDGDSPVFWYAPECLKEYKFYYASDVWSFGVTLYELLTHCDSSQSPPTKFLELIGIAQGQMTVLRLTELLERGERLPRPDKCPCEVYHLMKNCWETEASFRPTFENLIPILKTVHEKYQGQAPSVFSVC

Compound: CNc1cc(Oc2cc(C(=O)Nc3cc(N4CCN(C)CC4)cc(C(F)(F)F)c3)ccc2C)ncn1
- inhibition at 1 µM [1]: 19.8%
- inhibition [2]: 29.3%
- inhibition [3]: 6.9%
- inhibition [4]: 0.5%

Compound: CCN1CCN(Cc2ccc(NC(=O)c3ccc(C)c(/C=C/c4cnc5[nH]ccc5c4OC)c3)cc2C(F)(F)F)CC1
- residual activity [5]: 62%
- residual activity [6]: 83%
- percent of control [7]: 2.2%
- residual activity [8]: 100%

Compound: CCN1CCN(Cc2ccc(NC(=O)c3ccc(C)c(Oc4ccnc5[nH]ccc45)c3)cc2C(F)(F)F)CC1
- inhibition [9]: inactive
- inhibition [10]: inactive
- inhibition [11]: inactive
